Source: patent publication US20050215614A1, “Substituted indoles and their use as hcv inhibitors” (Rigel Pharmaceuticals, Inc., priority 2003, published 2005)

These compounds were tested on HCV replicon (assay: TaqMan RT-PCR Assay (9-13 replicon cells)). Conditions: 24-48 hours with compound.
Assay type: cell-based
Method: Actively dividing 9-13 replicon cells were seeded at the density of 3×10^4 cells/well in the volume of 1 ml/well into 24 well plate(s). The cells were then incubated at 37° C. and 5% CO2 for 24
Various concentrations of compounds (in the volume of 10 μl) were added into each well 24 hours after seeding the cells. The cells were incubated with the compounds for another 24-48 hours.
After incubating the 9-13 replicon cells with the compounds for 24-48 hours, media were aspirated off and RNA samples were prepared from each well.
TaqMan® (Roche Molecular Systems) one step RT-PCR was performed using the RNA samples according to the manufacturer's manual. Briefly, properly diluted RNA sample, upstream primer, downstream primer, FAM-labeled probe oligo were mixed and water was added to make up the volume to 25 μl. Equal volume of 2× TaqMan Master Mix were added and the reaction was performed in an ABI Prism 7700 Sequence Detector (Applied Biosystems).
For Cc1cc2cc(NC(=O)C3CCCC3)ccc2n1C(=O)c1c(Cl)cccc1Cl [Compound 16a-1, 5-Cyclopentanecarbonylamino-1-(2′,6′-dichlorobenzoyl)-2-methylindole], the “Activity (concentration of inhibitory activity)” value was “a (“a” indicates inhibitory activity at a concentration of less than 10 micromolar)”.

These compounds were tested on HCV replicon (assay: Immunoblotting Assay (9-13 replicon cells)). Conditions: 9-13 replicon cells (Huh7), 48 hours with compound.
Assay type: cell-based
Method: Actively dividing 9-13 replicon cells (Huh7 cells comprising an HCV replicon) were seeded at the density of 1×10^5 cells/well in the volume of 2 ml/well into 6 well plate(s). The cells were then incubated at 37° C. and 5% CO2 for 24 hours.
Various concentrations of compounds (in the volume of 10 μl) were added into each well 24 hours after seeding the cells. The cells were incubated with the compounds for another 48 hours.
Protein samples were prepared from the cultured cells and resolved on a SDS-PAGE gel.
After electrophoresis, the protein samples on the SDS-PAGE gel were transferred to a nitrocellulose membrane.
The membrane was blocked with 5% non-fat milk in PBS for 1 hr at room temperature.
Primary antibody incubation was performed for 1 hour at room temperature before the membrane was washed for 3 times with PBST (PBS plus 0.1% Tween 20), 15 minutes each.
Horse Radish Peroxidase conjugated secondary antibody incubation was performed for 1 hour at room temperature before the membrane was washed for 3 times with PBST (PBS plus 0.1% Tween 20), 15 minutes each.
The membrane was then soaked in substrate solution (Pierce) and exposed to a film.
For CC(C)(C)c1cc2cc(NC(=O)c3cccs3)ccc2[nH]1 [Compound 281], the “Activity (concentration of inhibitory activity)” value was “a (“a” indicates inhibitory activity at a concentration of less than 10 micromolar)”.

These compounds were tested on HCV replicon (assay: HCV Replicon Assay (luciferase, 5-2 Luc replicon cells)). Conditions: 5-2 Luc replicon cells (Huh7), 24-48 hours with compound, luciferase counts.
Assay type: cell-based
Method in brief: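 Huh7-derived 5-2 Luc replicon cells were seeded at 5000-7500 cells/well, grown 24 h at 37° C. and 5% CO2, then exposed to serial compound concentrations for 24-48 hours.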
For Cc1cc2cc(NC(=O)C3CCCC3)ccc2n1C(=O)c1c(Cl)cccc1Cl [Compound 16a-1, 5-Cyclopentanecarbonylamino-1-(2′,6′-dichlorobenzoyl)-2-methylindole], the “Activity (concentration of inhibitory activity)” value was “a (“a” indicates inhibitory activity at a concentration of less than 10 micromolar)”. With Cc1cc2cc(NC(=O)C3CCCCC3)ccc2n1C(=O)c1c(Cl)cncc1Cl [Compound 265] the “Activity (concentration of inhibitory activity)” value was “b (“b” indicates activity is at a concentration greater than 10 micromolar)”. For Cc1cc2cc(NC(=O)C3CCNCC3)ccc2n1C(=O)c1c(Cl)cccc1Cl [Compound 266], the “Activity (concentration of inhibitory activity)” value was “a (“a” indicates inhibitory activity at a concentration of less than 10 micromolar)”. With Cc1cc2cc(NC(=O)C3CCCCC3)ccc2n1C(=O)c1c(Cl)cccc1Cl [Compound 267] the “Activity (concentration of inhibitory activity)” value was “b (“b” indicates activity is at a concentration greater than 10 micromolar)”. Cc1cc2cc(NC(=O)[C@H]3CCCN3)ccc2n1C(=O)c1c(Cl)cccc1Cl [Compound 268] was tested, and the “Activity (concentration of inhibitory activity)” value was “b (“b” indicates activity is at a concentration greater than 10 micromolar)”. With Cc1cc2cc(NC(=O)C3CCN(C(=O)OC(C)(C)C)CC3)ccc2n1C(=O)c1c(F)cccc1Cl [Compound 269] the “Activity (concentration of inhibitory activity)” value was “b (“b” indicates activity is at a concentration greater than 10 micromolar)”. Cc1cccc(C)c1C(=O)n1c(C)cc2cc(NC(=O)[C@H]3CCCN3)ccc21 [Compound 270] was tested, and the “Activity (concentration of inhibitory activity)” value was “b (“b” indicates activity is at a concentration greater than 10 micromolar)”. In the case of Cc1cc2cc(NC(=O)[C@H]3CCCN3)ccc2n1C(=O)c1c(F)cccc1Cl [Compound 271], the “Activity (concentration of inhibitory activity)” value is reported as “b (“b” indicates activity is at a concentration greater than 10 micromolar)”. Cc1cc2cc(NC(=O)C3CCCNC3)ccc2n1C(=O)c1c(F)cccc1Cl (centres unmarked) [Compound 272] was tested, and the “Activity (concentration of inhibitory activity)” value was “b (“b” indicates activity is at a concentration greater than 10 micromolar)”. For Cc1cc2cc(NC(=O)C3CCNCC3)ccc2n1C(=O)c1c(F)cccc1Cl [Compound 273], the “Activity (concentration of inhibitory activity)” value was “b (“b” indicates activity is at a concentration greater than 10 micromolar)”. With CCc1ccc(C(=O)n2c(C)cc3cc(NC(=O)C4CCCC4)ccc32)cc1 [Compound 274] the “Activity (concentration of inhibitory activity)” value was “b (“b” indicates activity is at a concentration greater than 10 micromolar)”. In the case of Cc1cc2cc(NC(=O)C3CCCC3)ccc2n1C(=O)c1cc(Cl)cc(Cl)c1 [Compound 275], the “Activity (concentration of inhibitory activity)” value is reported as “b (“b” indicates activity is at a concentration greater than 10 micromolar)”. In the case of Cc1cc2cc(NC(=O)C3CCCC3)ccc2n1C(=O)c1ccc(Cl)cc1 [Compound 276], the “Activity (concentration of inhibitory activity)” value is reported as “b (“b” indicates activity is at a concentration greater than 10 micromolar)”. With Cc1ccccc1C(=O)n1c(C)cc2cc(NC(=O)C3CCCC3)ccc21 [Compound 277] the “Activity (concentration of inhibitory activity)” value was “b (“b” indicates activity is at a concentration greater than 10 micromolar)”. CC(C)(C)c1cc2cc(NC(=O)c3ccc(C(F)(F)F)cc3)ccc2[nH]1 [Compound 278] was tested, and the “Activity (concentration of inhibitory activity)” value was “a (“a” indicates inhibitory activity at a concentration of less than 10 micromolar)”. In the case of CC(C)(C)c1cc2cc(NC(=O)c3cc(Cl)nc(Cl)c3)ccc2[nH]1 [Compound 279], the “Activity (concentration of inhibitory activity)” value is reported as “a (“a” indicates inhibitory activity at a concentration of less than 10 micromolar)”. With COc1cc(C(=O)Nc2ccc3[nH]c(C(C)(C)C)cc3c2)cc(OC)c1OC [Compound 280] the “Activity (concentration of inhibitory activity)” value was “b (“b” indicates activity is at a concentration greater than 10 micromolar)”. In the case of CC(C)(C)c1cc2cc(NC(=O)c3cccs3)ccc2[nH]1 [Compound 281], the “Activity (concentration of inhibitory activity)” value is reported as “a (“a” indicates inhibitory activity at a concentration of less than 10 micromolar)”. In the case of CCC(C)(C)c1cc2cc(NC(=O)C(C)(C)C)ccc2[nH]1 [Compound 282], the “Activity (concentration of inhibitory activity)” value is reported as “b (“b” indicates activity is at a concentration greater than 10 micromolar)”. For CCC(C)(C)c1cc2cc(NC(=O)/C=C/c3ccccc3)ccc2[nH]1 [Compound 283], the “Activity (concentration of inhibitory activity)” value was “b (“b” indicates activity is at a concentration greater than 10 micromolar)”. For CCC(C)(C)c1cc2cc(NC(=O)c3ccc(C(C)(C)C)cc3)ccc2[nH]1 [Compound 284], the “Activity (concentration of inhibitory activity)” value was “b (“b” indicates activity is at a concentration greater than 10 micromolar)”. In the case of CCC(C)(C)c1cc2cc(NC(=O)c3c(F)cccc3F)ccc2[nH]1 [Compound 285], the “Activity (concentration of inhibitory activity)” value is reported as “a (“a” indicates inhibitory activity at a concentration of less than 10 micromolar)”. For CCC(C)(C)c1cc2cc(NC(=O)c3cccc(C(F)(F)F)c3)ccc2[nH]1 [Compound 286], the “Activity (concentration of inhibitory activity)” value was “a (“a” indicates inhibitory activity at a concentration of less than 10 micromolar)”. For CCC(C)(C)c1cc2cc(NC(=O)C(c3ccccc3)c3ccccc3)ccc2[nH]1 [Compound 287], the “Activity (concentration of inhibitory activity)” value was “b (“b” indicates activity is at a concentration greater than 10 micromolar)”. CCC(C)(C)c1cc2cc(NC(=O)c3cccs3)ccc2[nH]1 [Compound 288] was tested, and the “Activity (concentration of inhibitory activity)” value was “b (“b” indicates activity is at a concentration greater than 10 micromolar)”. With CCC(C)(C)c1cc2cc(NC(=O)c3cc(Cl)nc(Cl)c3)ccc2[nH]1 [Compound 289] the “Activity (concentration of inhibitory activity)” value was “a (“a” indicates inhibitory activity at a concentration of less than 10 micromolar)”. In the case of CC(C)(C)c1cc2cc(NC(=O)C3CC3)ccc2[nH]1 [Compound 290], the “Activity (concentration of inhibitory activity)” value is reported as “a (“a” indicates inhibitory activity at a concentration of less than 10 micromolar)”.
